Results reported in ChEMBL document CHEMBL2321833, “Design and optimization of selective protein kinase C θ (PKCθ) inhibitors for the treatment of autoimmune diseases” (J Med Chem, 2013).

What was measured:
[1] = Oral bioavailability in rat at 10 mg/kg; format: ADME, organism-based; conditions: in vivo
[2] = Half life in rat at 3 mg/kg, iv and 10 mg/kg, po; format: ADME, organism-based; conditions: in vivo
[3] = Clearance in rat at 3 mg/kg, iv and 10 mg/kg, po; format: ADME, organism-based; conditions: in vivo
[4] = tested on: Blood; experiment: Inhibition of PKC theta in human whole blood assessed as IL-2 level after 1 hr by ELISA; format: functional, tissue-based
[5] = target: Protein kinase C alpha type (Homo sapiens, UniProt P17252); experiment: Inhibition of PKC alpha (unknown origin) using RRRRRKGSFKRKA as substrate after 15 mins by spectrophotometry in presence of ATP
[6] = target: Protein kinase C delta type (Homo sapiens, UniProt Q05655); experiment: Inhibition of PKC delta (unknown origin) using ERMRPRKRQGSVRRRV as substrate after 15 mins by spectrophotometry in presence of ATP
[7] = target: T1, Protein kinase C theta type (Homo sapiens, UniProt Q04759); experiment: Inhibition of full-length recombinant PKC theta (unknown origin) using ERMRPRKRQGSVRRRV as substrate after 60 mins by scintillation counting analysis in presence of [gamma-33P]ATP
[8] = target: T1, Protein kinase C theta type; experiment: Inhibition of PKC-theta in human PBMC cells assessed as inhibition of IL-2 after 24 hrs by bead-based FLISA assay; format: cell-based

Sequence of Protein kinase C delta type (Q05655 whole entry): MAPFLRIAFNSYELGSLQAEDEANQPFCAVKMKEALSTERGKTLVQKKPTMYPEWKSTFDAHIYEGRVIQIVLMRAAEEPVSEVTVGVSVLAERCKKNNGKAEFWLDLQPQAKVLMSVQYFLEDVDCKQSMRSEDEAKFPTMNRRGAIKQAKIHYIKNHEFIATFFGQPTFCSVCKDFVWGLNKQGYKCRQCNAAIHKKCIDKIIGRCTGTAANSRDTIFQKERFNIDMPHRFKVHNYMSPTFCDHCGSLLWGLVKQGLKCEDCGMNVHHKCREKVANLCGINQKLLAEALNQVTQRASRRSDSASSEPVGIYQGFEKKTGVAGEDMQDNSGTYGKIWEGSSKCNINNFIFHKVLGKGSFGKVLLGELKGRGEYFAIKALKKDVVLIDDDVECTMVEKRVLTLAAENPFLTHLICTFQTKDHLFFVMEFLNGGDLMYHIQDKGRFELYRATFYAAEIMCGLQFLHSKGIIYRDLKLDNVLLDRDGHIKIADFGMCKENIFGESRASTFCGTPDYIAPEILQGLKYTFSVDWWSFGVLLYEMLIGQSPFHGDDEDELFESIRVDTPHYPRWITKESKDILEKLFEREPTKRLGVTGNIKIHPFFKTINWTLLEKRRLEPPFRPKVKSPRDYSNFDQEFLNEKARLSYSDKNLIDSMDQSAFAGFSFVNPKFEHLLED
T1 sequence (Q04759 whole entry): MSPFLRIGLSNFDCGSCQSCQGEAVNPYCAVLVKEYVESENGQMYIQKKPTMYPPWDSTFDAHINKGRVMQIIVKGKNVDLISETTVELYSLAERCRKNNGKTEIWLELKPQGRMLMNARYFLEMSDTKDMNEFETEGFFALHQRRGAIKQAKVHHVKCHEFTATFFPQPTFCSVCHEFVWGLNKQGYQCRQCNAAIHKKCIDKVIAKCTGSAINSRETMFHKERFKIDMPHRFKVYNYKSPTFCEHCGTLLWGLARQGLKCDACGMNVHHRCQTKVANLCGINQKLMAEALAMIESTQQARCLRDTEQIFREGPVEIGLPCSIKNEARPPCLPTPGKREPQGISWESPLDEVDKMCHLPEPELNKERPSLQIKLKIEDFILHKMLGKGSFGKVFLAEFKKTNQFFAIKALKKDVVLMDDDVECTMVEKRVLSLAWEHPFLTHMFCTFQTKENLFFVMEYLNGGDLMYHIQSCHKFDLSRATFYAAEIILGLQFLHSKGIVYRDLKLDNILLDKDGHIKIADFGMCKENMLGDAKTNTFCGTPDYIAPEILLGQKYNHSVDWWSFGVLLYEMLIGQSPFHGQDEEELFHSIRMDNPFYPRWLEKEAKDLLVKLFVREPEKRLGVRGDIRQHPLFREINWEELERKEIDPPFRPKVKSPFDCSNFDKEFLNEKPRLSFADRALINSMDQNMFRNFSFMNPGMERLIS

SMILES | Ki [5] | Ki [6] | Ki [7] | further results
CC(C)[C@@](C)(O)[C@@H]1CN(c2ccc(F)c(-c3n[nH]c4ncccc34)n2)CCN1 | 0.549 µM | 0.057 µM |  | bioavailability [1]: 36%; half-life [2]: 2.6 h; clearance [3]: 2.34 L/h/kg; IC50 [4]: 0.2 µM
CC(C)[C@@](C)(O)[C@H]1CN(c2ccc(F)c(-c3n[nH]c4ncccc34)n2)CCN1 |  | > 1.25 µM |  | 
CC(C)[C@@](C)(O)[C@@H]1CN(c2ccc(Cl)c(-c3n[nH]c4ncccc34)n2)CCN1 | 1.24 µM | 0.547 µM | 0.021 µM | IC50 [8]: 0.17 µM
Fc1ccc(N2CCNCC2)nc1-c1n[nH]c2ncccc12 | > 1.25 µM | 0.722 µM | 0.06 µM | 

Now from value to compound, other results behind:

Ki [5] | Ki [6] | Ki [7] | SMILES | further results
 | > 1.25 µM |  | CC(C)[C@](C)(O)[C@H]1CN(c2ccc(F)c(-c3n[nH]c4ncccc34)n2)CCN1 | 
 | 0.12 µM |  | CC(C)[C@](C)(O)[C@@H]1CN(c2ccc(F)c(-c3n[nH]c4ncccc34)n2)CCN1 | 
1.23 µM |  |  | c1cc(-c2n[nH]c3ncccc23)nc(N2CCNCC2)c1 | 
 | 0.792 µM |  | CC(C)C[C@@H]1CN(c2ccc(F)c(-c3n[nH]c4ncccc34)n2)CCN1 | 
> 1.25 µM | 0.957 µM | 0.02 µM | CC(C)[C@@](C)(O)[C@@H]1CN(c2ccc(C(F)(F)F)c(-c3n[nH]c4ncccc34)n2)CCN1 (racemic) | IC50 [8]: 0.42 µM
